Laboratory results as given in patent US4564639A, “N-(2,6-Difluorobenzoyl-N-'-(2-fluoro-4-halophenyl)urea” (priority 1982, dated 1986).
Read-outs that look alike come from different tables or passages of the source.

Assays:
Spodoptera litura [1] = assay: Insecticidal effect against Spodoptera litura, direct spraying on larvae (Table 1, II); format: in vivo; details: read-out: mortality (II, spraying concn.)
Experimental: (§1) Insecticidal effect against Spodoptera litura
(b) By the same procedure as in Example 7, the test compounds comprising the compounds of the present invention, i.e. Compound Nos. 1, 2, 3 and 4, and control compounds, i.e. Compounds A through G, were each processed into emulsifiable concentrates, which were then diluted with water to produce the aqueous solutions (containing 0.03 % v/v of added spreader, Dyne® (produced by Takeda Chemical Industries, Japan)) containing 10 and 50 ppm of the test compounds, respectively. 20 ml of each of the aqueous solutions was sprayed on 10 third-instar larvae of Spodoptera litura placed in a cage of wire netting. 30 minutes after the spraying, the larvae were taken out of the cage of wire netting and placed in an ice cream cup (diameter of 6 cm and depth of 4 cm) containing soybean leaves, and a number of dead larvae was checked in accordance with the same method as the examination method as stated under (a) except that the larvae were allowed to stand for 48 hours in place of 96 hours.
(§2) The mortalities in Test Examples 1 through 3 were calculated by the formula as mentioned below: [formula]

Chilo suppressalis = assay: Insecticidal effect against Chilo suppressalis, dipped rice seedlings; format: in vivo; details: 96 h, read-out: Mortality, % (spraying concn.)
Experimental: as §2
Insecticidal effect against Chilo suppressalis
By the same procedure as in Example 9, the test compounds comprising the compounds of the present invention, i.e. Compound Nos. 1, 2, 3 and 4, and control compounds, i.e. Compounds A through G, were processed into wettable powder, respectively, and the aqueous solutions of 0.4 and 2 ppm in concentration were prepared therefrom by the same method as stated under (a) of Test Example 1, whereby 10 rice seedlings (the height of a plant of 2 cm) were dipped in each of the insecticide solutions for 30 minutes. The seedlings thus treated were placed in the respective glass containers (diameter of 2 cm and depth of 5 cm), into which 10 third-instar larvae of Chilo suppressalis were released. The containers were covered with aluminum foil and allowed to stand in a room (25° C.), and a number of dead larvae 4 days after the larvae were released was checked.

Spodoptera litura [2] = assay: Insecticidal effect against Spodoptera litura, leaf spraying (Table 1, I); format: in vivo; details: read-out: mortality (I, spraying concn.)
Experimental: as §1
(a) The test compounds which comprise:
The above test compounds and control compounds were each processed into wettable powders in accordance with the same formula as in Example 9, followed by dilution with water to prepare emulsions containing 0.4 and 2 ppm, respectively. A spreader, Dyne® (produced by Takeda Chemical Industries, Japan), was added to the emulsions in the proportion of 0.03 volume % against the total volume, respectively, and 20 ml of each of the emulsions so obtained was sprayed by use of a spray gun (spraying pressure of 1 kg/cm^2) on seedlings (14 days after germination) of soybean grown in pots in a spray chamber. 2 hours after spraying, two true leaves were cut away and contained each in their respective ice-cream cup (diameter of 6 cm and depth of 4 cm), into which 10 third-instar larvae of Spodoptera litura was released. After the releasing of larvae, the cups were placed in a room (25° C.), and the number of larvae, […] was checked.
as §2

Plutella xylostella = assay: Insecticidal effect against Plutella xylostella, sprayed radish seedlings; format: in vivo
Experimental: as §2
Insecticidal effect against Plutella xylostella
By the same procedure as in Example 9, the test compounds comprising the compounds of the present invention, i.e., Compound Nos. 1, 2, 3 and 4, and control compounds, i.e. Compounds A through G, were processed into wettable powder, and the aqueous solutions of 50 ppm in concentration were prepared therefrom by the same method as stated under (a) of Test Example 1. 20 ml of each of the aqueous solutions was sprayed on seedlings of radish (25 days after germination) grown in pots in accordance with the same method as described under (a) of Test Example 1. 2 hours after the spraying, two true leaves were cut away and contained in their respective ice cream cups (diameter of 6 cm and depth of 4 cm), into which 10 second-instar larvae of Plutella xylostella were released. After the larvae were released, the above-mentioned cups were placed in a room (25° C.), and a number of dead larvae after 48 hours was checked.

Spodoptera litura [3] = assay: Insecticidal effect against Spodoptera litura, soil treatment with granules (Table 1, III); format: in vivo; details: 96 h, 250 mg of 2 weight % granules in soil of potted soybean, leaves cut 10 days after treatment, third-instar larvae, read-out: mortality (III, treatment amount)
Experimental: as §1
(c) Using the compounds of the present invention, i.e. Compound Nos. 1, 2, 3 and 4, and control compounds, i.e. Compounds A through G, as the test compounds, granules containing 2 weight % of the test compounds were prepared by the same procedure as in Example 13, and 250 and 500 mg of each of the granules were admixed, for the purpose of treatment, into the soil around roots of soybean plants grown in pots (diameter of 9 cm), respectively. The pots so treated were placed in a glass room (28° C.), and 10 days after the treatment, two true leaves were cut away and contained each in ice cream cups (diameter of 6 cm and depth of 4 cm). 10 third-instar larvae of Spodoptera litura were released into each of the ice cream cups, and a number of dead larvae was checked in accordance with the same method as the examination method as stated under (a).
as §2

Toxicity to fishes = assay: Toxicity to fishes; set-up: species or system Orizias latipes; details: in vivo; 72 hours later, orange-red killifish; read-out: TLm (the concentration at which 50% of the test fish dies)
Oral toxicity in mice = details: mouse, in vivo
insect = assay: Insecticidal and ovicidal effect (general statement); format: in vivo; details: in words
plant body = assay: Penetration into the plant body (general statement); details: in words
[4] = emulsifiable concentrate solution sprayed on third-instar larvae, 48 hours
[5] = 0.4 ppm, rice seedlings dipped 30 minutes, third-instar larvae, 4 days
[6] = 2 ppm, rice seedlings dipped 30 minutes, third-instar larvae, 4 days
[7] = 0.4 ppm, wettable powder emulsion sprayed on soybean seedlings, third-instar larvae, 96 hours
[8] = 2 ppm, wettable powder emulsion sprayed on soybean seedlings, third-instar larvae, 96 hours
[9] = 50 ppm sprayed on radish seedlings, second-instar larvae, 48 hours, read-out: Mortality, %

| Structure (SMILES) | mortality at 10 ppm (Spodoptera litura [1]; 10 ppm, emulsifiable concentrate solution sprayed on third-instar larvae, 48 hours) | mortality at 50 ppm (Spodoptera litura [1]; [4]) | mortality at 0.4 ppm (Chilo suppressalis; [5]) | mortality at 2 ppm (Chilo suppressalis; [6]) | mortality at 0.4 ppm (Spodoptera litura [2]; [7]) | mortality at 2 ppm (Spodoptera litura [2]; [8]) | mortality at 50 ppm (Plutella xylostella; 48 h) | mortality at 250 mg (Spodoptera litura [3]) | mortality at 50 ppm (Plutella xylostella; [9]) | mortality at 10 ppm (Spodoptera litura [1]; 48 h) | mortality at 0.4 ppm (Chilo suppressalis) | mortality at 2 ppm (Chilo suppressalis) | LC50 at 72 h (Toxicity to fishes) | LD50 (Oral toxicity in mice) | insecticidal and ovicidal effect (insect) | action to penetrate into the plant body (plant body) | mortality at 0.4 ppm (Spodoptera litura [2]; in Glycine max, 96 h) | mortality at 2 ppm (Spodoptera litura [2]; in Glycine max, 96 h) |
| --- | --- | --- | --- | --- | --- | --- | --- | --- | --- | --- | --- | --- | --- | --- | --- | --- | --- | --- |
| O=C(NC(=O)c1c(F)cccc1F)Nc1ccc(Cl)cc1 [Compound A, N-2,6-difluorobenzoyl-N'-4-chlorophenylurea] | 0% | 10% | 5% | 40% | 20% | 30% | 20% | – | – | – | – | – | – | – | – | – | – | – |
| O=C(NC(=O)c1c(Cl)cccc1Cl)Nc1ccc(Cl)cc1Cl [Compound B, N-2,6-dichlorobenzoyl-N'-2,4-dichlorophenylurea] | – | – | 0% | 0% | – | – | – | 0% | 0% | – | – | – | – | – | – | – | – | – |
| O=C(NC(=O)c1c(Cl)cccc1Cl)Nc1ccc(Cl)c(F)c1 [Compound C, N-2,6-dichlorobenzoyl-N'-3-fluoro-4-chlorophenylurea] | – | – | 0% | 0% | 20% | 30% | – | 0% | 10% | – | – | – | – | – | – | – | – | – |
| O=C(NC(=O)c1c(F)cccc1F)Nc1ccc(Cl)c(F)c1 [Compound D, N-2,6-difluorobenzoyl-N'-3-fluoro-4-chlorophenylurea] | – | 30% | 10% | 45% | 25% | 45% | – | 0% | 45% | – | – | – | – | – | – | – | – | – |
| O=C(NC(=O)c1c(F)cccc1F)Nc1ccc(Cl)c(Cl)c1 [Compound E, N-2,6-difluorobenzoyl-N'-3,4-dichlorophenylurea] | – | – | 0% | 0% | 20% | 40% | – | 0% | 40% | – | – | – | – | – | – | – | – | – |
| O=C(NC(=O)c1c(Cl)cccc1Cl)Nc1ccc(F)cc1F [Compound F, N-2,6-dichlorobenzoyl-N'-2,4-difluorophenylurea] | – | – | 0% | 0% | – | – | – | 0% | 20% | – | – | – | – | – | – | – | – | – |
| O=C(NC(=O)c1c(F)cccc1F)Nc1ccc(I)c(F)c1 [Compound G, N-2,6-difluorobenzoyl-N'-3-fluoro-4-iodophenylurea] | – | 5% | 10% | 55% | 5% | 35% | – | 0% | 50% | – | – | – | – | – | – | – | – | – |
| O=C(NC(=O)c1c(F)cccc1F)Nc1ccc(Cl)cc1F [Compound No. 1, N-2,6-Difluorobenzoyl-N'-2-fluoro-4-chlorophenylurea] | – | – | – | – | – | – | – | – | 100% | 60% | 80% | 100% | ≥ 10 µg/mL | ≥ 3000 mg/kg | excellent insecticidal and ovicidal effect | – | – | – |
| O=C(NC(=O)c1c(F)cccc1F)Nc1ccc(Br)cc1F [Compound No. 2, N-2,6-difluorobenzoyl-N'-2-fluoro-4-bromophenylurea] | – | – | – | – | – | – | – | 80% | 100% | 60% | 70% | 100% | – | ≥ 3000 mg/kg | excellent insecticidal and ovicidal effect | – | – | – |
| O=C(NC(=O)c1c(F)cccc1F)Nc1ccc(F)cc1F [Compound No. 3, N-2,6-difluorobenzoyl-N'-2,4-difluorophenyl urea] | – | – | – | – | – | – | – | 100% | 95% | 35% | 40% | 80% | – | ≥ 3000 mg/kg | – | excellent action to penetrate into the plant body | 80% | – |
| O=C(NC(=O)c1c(F)cccc1F)Nc1ccc(I)cc1F [Compound No. 4, N-2,6-difluorobenzoyl-N'-2-fluoro-4-iodophenylurea] | – | – | – | – | – | – | – | 55% | 100% | 65% | 75% | 100% | – | ≥ 3000 mg/kg | – | – | 100% | 100% |
